Measured values: ChEMBL document CHEMBL1135909, “Inhibition of protein-protein association by small molecules: approaches and progress” (J Med Chem, 2002)
pIC50, pKi: −log10 of the molar value. Blank lines part the entries; values can stand above or below the compound they belong to.

Key:
[1] = Inhibition of Interleukin-1 alpha binding to Interleukin-1 receptor
[2] = species on record: Oryctolagus cuniculus; test: Inhibition of the absorption of dentine slices by rabbit osteoclasts; assay type: functional
[3] = molecular target: T1, Proto-oncogene tyrosine-protein kinase Src (Homo sapiens, UniProt P12931); test: Inhibition of Src protein tyrosine kinase
[4] = Inhibitory activity
[5] = species on record: Homo sapiens; test: cells
[6] = tested on: CHO; test: Inhibition of [125I]RANTES association with CCR5 expressed in CHO cells at 100 nM; assay type: functional, cell-based; conditions: Cricetulus griseus
[7] = molecular target: Apoptosis regulator Bcl-2 (Homo sapiens, UniProt P10415); test: Inhibitory activity against Bcl-2 functioning; assay type: functional
[8] = tested on: HL-60; test: Percent cell death of cultured HL60 human leukemia cells at dose of 50 uM; assay type: functional
[9] = molecular target: Phosphodiesterase 1 (Homo sapiens, UniProt P54750+Q01064+Q14123); test: Inhibition of calmodulin-dependent PDE(3',5'-phosphodiesterase); assay type: functional
[10] = molecular target: Nitric oxide synthase, inducible (Homo sapiens, UniProt P35228); test: Binding against the partially purified human Inducible nitric oxide synthase
[11] = tested on: Rattus norvegicus; test: The compound was tested in vivo for suppressing LPS-stimulated plasma NOx production in rats; assay type: functional
[12] = molecular target: T1, Proto-oncogene tyrosine-protein kinase Src; test: Inhibition of binding to Src SH2 domain; assay type: functional
[13] = Selective inhibition of Src SH2 domain over ZAP-70 SH2 domain; assay type: functional
[14] = Inhibition of thyroid-hormone induced bone resorption; assay type: functional
[15] = molecular target: T2, Growth factor receptor-bound protein 2 (Homo sapiens, UniProt P62993); test: Inhibition of Growth factor receptor bound protein 2 SH2-domain binding
[16] = molecular target: T2, Growth factor receptor-bound protein 2; test: Inhibition of c-Met interaction with Grb2 SH2 domain in Okajima (human gastric carcinoma) cells at 30 nM; assay type: functional; conditions: Stomach
[17] = molecular target: T3, Tumor necrosis factor receptor superfamily member 16 (Homo sapiens, UniProt P08138); test: Competitive binding against Nerve growth factor to p75-NGF receptor in PC12 cells; assay type: cell-based, PC-12
T3 sequence (P08138 whole entry): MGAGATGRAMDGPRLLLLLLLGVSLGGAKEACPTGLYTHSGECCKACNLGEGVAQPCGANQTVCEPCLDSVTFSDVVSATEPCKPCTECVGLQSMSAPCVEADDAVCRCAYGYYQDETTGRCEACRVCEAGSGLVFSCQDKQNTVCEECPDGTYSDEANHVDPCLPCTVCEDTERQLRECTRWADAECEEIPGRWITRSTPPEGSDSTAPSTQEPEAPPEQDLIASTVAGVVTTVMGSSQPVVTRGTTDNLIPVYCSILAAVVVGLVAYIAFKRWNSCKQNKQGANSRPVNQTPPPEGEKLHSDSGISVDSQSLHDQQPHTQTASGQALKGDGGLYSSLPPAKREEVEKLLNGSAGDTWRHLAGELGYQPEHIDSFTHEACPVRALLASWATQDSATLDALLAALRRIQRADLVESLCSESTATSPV

[18] = molecular target: T4, High affinity nerve growth factor receptor (Homo sapiens, UniProt P04629); test: Inhibition of NGF-stimulated Trk A
[19] = molecular target: T4, High affinity nerve growth factor receptor; test: Inhibition of NGF-stimulated Trk A in PC12 cells; assay type: cell-based, PC-12

T4 sequence (P04629 whole entry): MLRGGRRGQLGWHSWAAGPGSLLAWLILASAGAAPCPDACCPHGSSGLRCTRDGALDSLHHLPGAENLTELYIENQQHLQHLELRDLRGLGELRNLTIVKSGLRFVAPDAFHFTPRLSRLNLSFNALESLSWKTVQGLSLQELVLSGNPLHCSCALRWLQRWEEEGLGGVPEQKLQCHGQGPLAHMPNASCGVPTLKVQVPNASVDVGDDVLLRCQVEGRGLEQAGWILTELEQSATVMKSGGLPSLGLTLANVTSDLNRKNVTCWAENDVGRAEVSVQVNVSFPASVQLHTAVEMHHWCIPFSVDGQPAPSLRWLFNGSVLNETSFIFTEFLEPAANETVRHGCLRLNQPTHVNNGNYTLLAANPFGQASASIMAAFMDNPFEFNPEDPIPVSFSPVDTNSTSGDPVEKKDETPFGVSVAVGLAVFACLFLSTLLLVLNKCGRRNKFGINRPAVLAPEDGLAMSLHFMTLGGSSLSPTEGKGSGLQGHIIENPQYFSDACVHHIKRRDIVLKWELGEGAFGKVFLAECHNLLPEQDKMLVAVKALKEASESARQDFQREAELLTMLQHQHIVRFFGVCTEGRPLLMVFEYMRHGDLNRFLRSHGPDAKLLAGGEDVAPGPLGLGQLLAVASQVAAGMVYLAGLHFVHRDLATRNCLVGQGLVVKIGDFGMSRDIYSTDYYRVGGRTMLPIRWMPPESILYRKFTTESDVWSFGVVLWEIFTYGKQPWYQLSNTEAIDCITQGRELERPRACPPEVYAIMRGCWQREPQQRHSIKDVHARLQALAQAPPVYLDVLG
T1 sequence (P12931 2-536 limits assumed): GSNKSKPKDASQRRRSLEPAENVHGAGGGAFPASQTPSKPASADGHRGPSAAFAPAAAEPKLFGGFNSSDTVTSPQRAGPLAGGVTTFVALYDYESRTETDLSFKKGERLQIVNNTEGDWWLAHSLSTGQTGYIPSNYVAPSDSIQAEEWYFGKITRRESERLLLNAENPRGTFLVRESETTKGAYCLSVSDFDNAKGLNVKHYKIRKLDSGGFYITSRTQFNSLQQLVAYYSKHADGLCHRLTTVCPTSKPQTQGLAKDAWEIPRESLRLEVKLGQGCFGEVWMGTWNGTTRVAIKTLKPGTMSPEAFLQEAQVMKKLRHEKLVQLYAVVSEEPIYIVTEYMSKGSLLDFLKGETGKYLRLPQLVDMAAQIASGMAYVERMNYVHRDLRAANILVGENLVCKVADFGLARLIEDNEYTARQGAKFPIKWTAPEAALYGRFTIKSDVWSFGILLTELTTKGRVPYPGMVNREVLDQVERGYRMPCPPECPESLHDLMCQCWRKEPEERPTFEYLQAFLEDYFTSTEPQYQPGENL
Sequence of Nitric oxide synthase, inducible (P35228 whole entry): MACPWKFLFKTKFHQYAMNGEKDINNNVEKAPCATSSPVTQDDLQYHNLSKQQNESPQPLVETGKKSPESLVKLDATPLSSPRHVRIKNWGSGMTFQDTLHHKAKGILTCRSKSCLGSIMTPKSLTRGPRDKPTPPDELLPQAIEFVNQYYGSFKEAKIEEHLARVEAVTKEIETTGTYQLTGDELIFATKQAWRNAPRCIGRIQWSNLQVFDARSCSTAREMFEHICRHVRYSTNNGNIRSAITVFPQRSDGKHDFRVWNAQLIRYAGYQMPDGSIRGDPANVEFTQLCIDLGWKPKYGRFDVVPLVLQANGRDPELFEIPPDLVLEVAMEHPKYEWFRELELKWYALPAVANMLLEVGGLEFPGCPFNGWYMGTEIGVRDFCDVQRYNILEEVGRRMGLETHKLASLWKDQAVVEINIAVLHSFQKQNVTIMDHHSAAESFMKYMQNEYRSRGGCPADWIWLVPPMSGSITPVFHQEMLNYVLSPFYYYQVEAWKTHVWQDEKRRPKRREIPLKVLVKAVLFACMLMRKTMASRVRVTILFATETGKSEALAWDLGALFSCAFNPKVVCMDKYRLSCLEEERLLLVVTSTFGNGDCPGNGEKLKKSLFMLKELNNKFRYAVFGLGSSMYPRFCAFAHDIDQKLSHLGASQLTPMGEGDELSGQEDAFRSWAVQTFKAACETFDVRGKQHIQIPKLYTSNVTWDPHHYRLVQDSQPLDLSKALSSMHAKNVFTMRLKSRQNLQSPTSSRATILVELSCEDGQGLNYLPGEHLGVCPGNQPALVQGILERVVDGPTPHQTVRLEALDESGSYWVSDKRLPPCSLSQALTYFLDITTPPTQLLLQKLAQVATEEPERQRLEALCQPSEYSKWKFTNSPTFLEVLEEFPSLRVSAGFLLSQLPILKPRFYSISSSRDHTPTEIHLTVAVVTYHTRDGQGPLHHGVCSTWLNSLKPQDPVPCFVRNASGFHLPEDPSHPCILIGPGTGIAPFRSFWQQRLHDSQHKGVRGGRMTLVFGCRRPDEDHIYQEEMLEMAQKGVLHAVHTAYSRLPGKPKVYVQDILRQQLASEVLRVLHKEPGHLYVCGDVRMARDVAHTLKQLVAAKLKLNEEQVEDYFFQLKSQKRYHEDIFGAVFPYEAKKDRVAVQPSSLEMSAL
Sequence of Apoptosis regulator Bcl-2 (P10415 whole entry): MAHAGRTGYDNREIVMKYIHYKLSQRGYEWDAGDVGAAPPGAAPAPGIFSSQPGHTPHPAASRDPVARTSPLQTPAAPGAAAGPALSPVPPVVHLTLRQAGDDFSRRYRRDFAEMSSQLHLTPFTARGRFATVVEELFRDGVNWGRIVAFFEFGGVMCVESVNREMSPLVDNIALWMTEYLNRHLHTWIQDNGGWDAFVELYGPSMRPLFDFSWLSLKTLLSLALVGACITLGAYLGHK

Compound: CC(=O)NC(Cc1ccc(P(=O)(O)O)c(P(=O)(O)O)c1)C(=O)N[C@H]1CCCCc2cc(OCC3CCCCC3)c(C(N)=O)cc21 (stereo partly drawn)
pIC50 [2]: 5.80
pIC50 [3]: 6.52

Compound: CC(=O)N[C@@H](Cc1ccccc1)C(=O)N[C@H]1CCCNC(=O)[C@H](CCCN=C(N)N)NC(=O)[C@H](Cc2c[nH]c3ccccc23)NC(=O)[C@@H](CC2CCCCC2)NC(=O)[C@@H]2CCCN2C1=O
pIC50 [5]: 7.70

Compound: Cc1ccc(-c2ccc3c(c2)C=C(C(=O)Nc2ccc(C[N+](C)(C)C4CCOCC4)cc2)CCC3)cc1
pIC50 [6]: 8.85

Compound: CCSCCCCC(c1ccc(O)cc1)C(C)(CC)c1ccc(O)cc1 (stereo not drawn)
pIC50 [7]: ~5.05
Cell death [8]: >90%

Compound: NCCc1ccc(OCCCN=C(N)N)cc1OCCc1ccccc1
pIC50 [1]: 3.11

Compound: COC(=O)N1CCN(c2ccnc(-n3ccnc3)n2)C(CC(=O)NCc2ccc3c(c2)OCO3)C1 (stereo not drawn)
pKi [10]: 8.66
ED50 [11]: 1.2 mg/kg
pIC50 [4]: 9.22

The next lines start with results.

pIC50 [1]: > 5.00
Compound: CCCCCCOc1ccc(CCOc2cc(OCCCN)ccc2C(=O)NC(c2ccccc2)c2ccccc2)cc1

pIC50 [4]: 8.96
Compound: O=C(CC1CNCCN1c1cc(Cl)nc(-n2ccnc2)n1)NCc1ccc2c(c1)OCO2 (stereo not drawn)

IC50 [9]: 0.02 µM
Compound: CCc1cc(-c2ccc(OCC(=O)O)cc2C(C)C)ccc1-c1cccc(Cc2ccc3ccccc3c2)c1

IC50 [9]: 0.009 µM
Compound: CCc1cc(-c2ccc(OCC(=O)O)cc2C(C)C)ccc1-c1cccc(Cc2cccc3ccccc23)c1

pIC50 [12]: 5.26
pIC50 [13]: 4.22
pIC50 [14]: 4.37
Compound: CC(=O)NC(Cc1ccc(C(=O)O)c(C=O)c1)C(=O)N[C@H]1CCCCc2cc(OCC3CCCCC3)c(C(N)=O)cc21 (stereo partly drawn)

pIC50 [15]: 7.30
Blockade [16]: 50%
Compound: NC(=O)C[C@H](NC(=O)C1(NC(=O)[C@H](Cc2ccc(C(C(=O)O)C(=O)O)cc2)NC(=O)C(=O)O)CCCCC1)C(=O)NCCCc1ccc2ccccc2c1

pIC50 [18]: 5.23
pIC50 [19]: 5.43
Compound: O=C1c2cccc3cc([N+](=O)[O-])cc(c23)C(=O)N1NCCO
pIC50 [17]: 5.43

pIC50 [1]: > 5.00
Compound: CCCCCCOc1cccc(CCOc2cc(OCCCN)ccc2C(=O)NC2c3ccccc3-c3ccccc32)c1
